Patent US9012190B2, “Use of thiamine and nicotine adenine dinucleotide for butanol production” (Butamax Advanced Biofuels LLC, priority 2011, dated 2015)

What was measured:
[1] = test system: BP1063 isobutanol producing strain; conditions: bioreactor; NA concentrations of as low as 5 mg/L; vs water control
Procedure: One liter (1 L) of inoculum medium contained: 6.7 g, Yeast Nitrogen Base w/o amino acids (Difco 0919-15-3); 2.8 g, Yeast Synthetic Drop-out Medium Supplement Without histidine, leucine, tryptophan and uracil (Sigma Y2001); 20 mL of 1% (w/v) L-leucine; 4 mL of 1% (w/v) L-tryptophan; 1 mL of ergosterol and Tween 80 solution; 3 g of ethanol; 3 g of glucose. Preparation of ergosterol and Tween 80 solution: for 10 mL of the solution, 100 mg of ergosterol was dissolve in 5 mL 100% EtOH and 5 mL Tween 80. It was heated at 70° C. for 10 minutes.
A 125 mL shake flask was inoculated directly from a frozen vial by pipetting the whole vial culture (approx. 1 ml) into 10 mL of the inoculum medium. The flask was incubated at 260 rpm and 30° C. The strain was grown overnight until OD about 1.0. At this point four 2 L baffled shake flasks with 90 mL of the inoculum medium were inoculated from the overnight culture. […]
OD at λ=600 nm was determined in a HEλIOS a spectrophotometer (Thermo Electron Corporation, USA). […] Glucose and fermentation by-product analysis were determined by HPLC utilizing a Shodex® SH-1011 column with a Shodex® SH-G guard column (both available from Waters Corporation, Milford, Mass.), with diode array (DA) and refractive index (RI) detector. […]
Isobutanol was measured in oleyl alcohol, culture broth, and off-gas samples by GC method, HPLC method, and mass-spectrometry, respectively.

[2] = test system: isobutanol producing NYLA84 strain; assay: Shake flask cultivations with nicotinic acid, vitamin solution or YEP (Example 8); assay type: cell-based, Saccharomyces cerevisiae
Procedure: (§1) The aerobic shake flasks with air permeable lid were incubated at 30° C. and 260 rpm.

[3] = test system: isobutanol producing NYLA 84 strain; assay: Aerobic shake flask range finding with nicotinic acid (Example 7); assay type: cell-based, Saccharomyces cerevisiae; conditions: NA concentrations as low as 6 mg/L, all measurement points (2.00 h, 18.75 h, 24.5 h)
Procedure: The strain used in this Example was the isobutanol producing NYLA 84 strain, described elsewhere herein. Vitamin stock solution contained biotin, 50 mg/L; Ca-panthotenate, 1 g/L; nicotinic acid, 1 g/L; myo-inositol, 25 g/l; thiamine.HCl, 1 g/L; pyridoxine hydrochloride, 1 g/L; p-aminobenzoic acid, 0.2 g/L; riboflavin, 0.2 g/L; and folic acid, 2 mg/L. One liter (1 L) of ergosterol and Tween 80 stock solution contains 10 g of ergosterol dissolved in 500 mL 100% ethanol solution and 500 mL Tween 80.
Glucose and fermentation by-product analysis were determined by a Waters HPLC utilizing a Bio-Rad Aminex HPX-87H column with diode array (DA) operated at 210 nm and a refractive index (RI) detector at 50° C.
Several seed cultures inoculated each with a 1 mL glycerol frozen stock vial were grown in 10 mL base medium for 24 h. At the start of the range finding experiment, seed cultures were pooled and 16 mL each of the pooled seed culture were distributed into 125 mL shake flasks, 2 mL of 1 M MES buffer added, and additionally 2 mL of (a) bidestilled water, (b-d) nicotinic acid (NA) stock solutions with 60 mg/L, 600 mg/L and 1000 mg/L of NA dissolved in bidestilled water, respectively, and (e) YE stock solution with 200 g/l YE. The aerobic shake flasks with air permeable lid were incubated at 30° C. and 260 rpm. Initial OD at λ=600 nm in the cultures was 0.764.

[4] = test system: isobutanol producing NYLA84 strain; assay: Shake flask cultivations with nicotinic acid, vitamin solution or YEP (Example 6); assay type: cell-based, Saccharomyces cerevisiae
Procedure: as §1

[5] = test system: isobutanol producing NYLA84 strain; assay: Shake flask fermentation with addition of thiamine or yeast extract (Example 1); assay type: cell-based, Saccharomyces cerevisiae
Procedure: The medium contained the following ingredients per L of water: 6.7 g Yeast Nitrogen Base (YNB) w/o amino acids (Difco 0919-15-3); 2.8 g Yeast Synthetic Drop-out Medium Supplement Without histidine, leucine, tryptophan, and uracil (Sigma Y2001); 20 mL of 1% (w/v) L-leucine; 4 mL of 1% (w/v) L-tryptophan; 5 g ethanol; 3 g glucose; and 1.0 mL of the ergosterol and Tween 80. In order to obtain 10 mL ergosterol and Tween 80 solution, 100 mg of ergosterol were dissolved in 5 mL 100% EtOH and 5 mL Tween 80 and then heated until sterile and dissolved (10 min at 70° C.).
In the shake flask experiments described, the following were added to 125 mL shake flasks: 16 mL of the culture broth; 2 mL of the 1 M MES buffer; and 2 mL of the addition (H2O, YE, TH). The following additions were prepared: yeast extract (YE, final concentration 10 g/L); thiamine (TH, final concentration 6, 60, and 100 mg/L).
In order to provide the culture broth, seed cultures were started in 125 mL shake flasks with air permeable lids (10 mL medium inoculated with 1 mL inoculum from a frozen vial). […] The OD was measured at λ=600 nm (Spectrophotometer from Thermo Electron Corporation Heλios Alpha, USA). […] Ergosterol and Tween 80 was added to the medium to a final concentration of 1 mL/L. Seed (10 mL) was inoculated into 2 L shake flask with 135 mL of the medium. Separately, 2 mL of the H2O, YE, TH additions were added to new 125 ml shake flasks. Into the 2 L shake flask, 16 mL of 1 M MES buffer was added and 5.3 mL of 50% (w/w) glucose solution. Eighteen (18) mL of this culture broth was distributed into the 125 mL shake flasks with prepared additions. The aerobic shake flasks with air permeable lid were incubated at 30° C. and 260 rpm. The anaerobic shake flasks were treated in anaerobic hood and incubated at 30° C. and 260 rpm. The anaerobic shake flasks were sampled in the anaerobic hood.
The effect of thiamine on isobutanol production was analyzed using shake flask fermentation. Shake flask fermentations were performed under both aerobic and anaerobic conditions in the presence of water (negative control), yeast extract (YE, positive control, final concentration 10 g/L), or thiamine (TH, final concentration 100 mg/L) with isobutanol producing NYLA84 strain. The final biomass (X), isobutanol concentrations, and specific isobutanol production rates (qP) were measured and are shown in FIG. 1.

[6] = aerobic and anaerobic shake flasks, sampled after 6.3 and 20.8 h
[7] = isobutanol, glucose consumption, biomass
[8] = aerobic (25.8 h) and anaerobic (24.2 h) shake flasks
[9] = aerobic shake flasks, thiamine 100 mg/L

## O=C(O)c1cccnc1 [NA, nicotinic acid]
[1]
  final isobutanol titers in the aqueous phase: improved
[2]; [6]
  biomass formation compared to the negative control: increased
  consumption of glucose compared to the negative control: increased
  isobutanol production compared to the negative control: increased
[2]; [7]
  increase under anaerobic versus aerobic conditions: significantly more pronounced under anaerobic than under aerobic conditions
[3]
  biomass titers compared to control culture without NA: significantly increased
  isobutanol titers compared to control culture without NA: significantly increased
[4]; [8]
  biomass formation compared to the negative control: increased
  consumption of glucose compared to the negative control: increased
  isobutanol production compared to the negative control: increased
[4]; [7]
  increase under anaerobic versus aerobic conditions: significantly more pronounced under anaerobic than under aerobic conditions

## Cc1ncc(C[n+]2csc(CCO)c2C)c(N)n1 [thiamine]
[5]; aerobic flasks, thiamine 100 mg/L vs yeast extract 10 g/L
  initial qP compared with yeast extract: about the same as achieved with yeast extract
[5]; aerobic flasks, thiamine 100 mg/L, vs water control
  initial qP higher than the control: 75%
[5]; aerobic flasks, thiamine final concentration 100 mg/L, first 24 fermentation hours
  initial qP (specific isobutanol production rate): 0.14 g/g/h
[5]; aerobic shake flasks
  accumulation of keto-isovaleric acid in control shake flasks compared to flasks with the addition: several times higher
[5]; aerobic shake flasks, final concentrations of 6, 60, and 100 mg/L thiamine
  isobutanol titers at the three concentrations: similar
[5]; [9]
  final biomass concentration compared to the control: higher
  titers of isobutanol compared to the control: higher
